Where two headings read alike, the source gives them in different places.
What was measured:
PC-3 = test: MTT cytotoxicity, 48 h; assay type: cell-based, human
Procedure: (§1) The in vitro cytotoxicity of iridium(III) complexes 4a–4g was first evaluated against cancer cell lines PC-3 (human prostate) and T24 (human bladder) and the non-cancerous NIH-3T3 cell line (murine fibroblasts) using colorimetric MTT tests after 48 h of treatment. The dimeric iridium precursor [IrCl(ppy)2]2 was used as reference and the results are summarized in Table S1 (Supplementary Materials) in the supporting information file. […] The complexes were also evaluated for their cytotoxicity towards healthy NIH-3T3 cells, giving access to the selectivity index (SI). […] No linear correlation between lipophilicity and anti-cancer activity was found for the iridium(III) complexes 4a–4g. For the following biological studies, we focused on the C1 series.
(§2) Table S1. Cytotoxic activity of iridium(III) NHC complexes 4a−4g expressed as GI50 (μM) values towards selected cancer and normal cell lines as determined by MTT assay (48 h).a Complex PC-3 T24 NIH3T3 SI (PC-3) SI (T24) […]
(§3) a GI50 values correspond to the concentration of complexes causing 50 % inhibition of cell growth.
(§4) Data were obtained from three independent experiments.
(§5) The cytotoxic effects of the NHC precursors, the imidazolium salts, which represents the potential hydrolysis and/or degradation products of the complexes, have been published before [SI-1, SI-2]. […]

T24 = test: MTT cytotoxicity, 48 h; assay type: cell-based, human
Procedure: as §1, §2, §3, §4, §5

[1] = Octanol–water partition coefficient, shake-flask method; assay type: physicochemical; settings: n-octanol/water, UV absorbance 260 nm
Procedure: Lipophilicities of all complexes have been measured by the classical shake-flask method, using UV absorption. The Log p values range from -0.063 to 0.861 in increasing order –0.063 (4a), 0.035 (4d), 0.519 (4f), 0.581 (4c), 0.842 (4b), 0.847 (4e) and 0.861 (4g).
The octanol–water partition coefficients (P) of 4a to 4g were determined using a shake-flask method. Water (100 mL, distilled after milli-Q purification) and n-octanol (100 mL, Sigma-Aldrich, St. Louis, MO, USA, ACS spectrophotometric grade, ≥99%) were shaken together for 24 h to allow saturation of both phases. Stock solutions of the […] compounds (50 μM) were prepared in the aqueous phase and aliquots (1 mL) of each of these stock solutions were then added to an equal volume of the n-octanol phase. The resultant biphasic solutions were mixed for 1 h and then centrifuged (3000× g, 5 min) (Eppendorf Centrifuges 5415R and 5804R) to separate the phases. The concentrations of the complexes in the organic and aqueous phases were then determined using UV absorbance spectroscopy (260 nm). Log P was defined as the logarithm of the ratio of the concentrations of the studied complex in the organic and aqueous phases (Log P = Log {[Ir(org)]/[Ir(aq)]}; values reported are the means of at least two separate determinations).

HeLa cervix cancer cells = test: MTT cell viability, 72 h, dark or 458 nm irradiation; assay type: cell-based, human; settings: for GI50: 72 h, MTT
Procedure: (§6) For all biology experiments, the compounds were solubilized in DMSO to reach a final fixed concentration equal to 0.1% v/v to avoid cytotoxicity caused by DMSO [89]. The results are normalized to controls (0.1% v/v DMSO). Depending on the cell type, approximatively 1000 to 10,000 cells/cm^2 were seeded in 48-well plates for MTT, ATP and GSH assays and 60 mm Petri dishes for Western blots. Cells were allowed to attach overnight and then incubated for 4 h with the different complexes (in the dark), then irradiated for 10 min, followed by an incubation in the dark up to 72 h.
(§7) Irradiation was conducted using an in-house device: a series of blue light LEDs selected according to the absorption spectra of the compounds at a 458 nm wavelength with an emitted power of 9.6 watts. The absorbed energy, or irradiance, was measured at 458 nm with a Thorlabs Optical Power Meter PM100A at 5 and 10 cm distance between the cell layer and the light source and expressed as mW/cm^2.
(§8) A tetrazolium-based MTT reagent (3-(4,5-dimethylthiazol-2-yl)-2,5-diphenyltetrazolium bromide) was used to determine cell viability, as previously described. After 72 h of treatment at 37 °C and 5% CO2, cells were incubated with 25 μL MTT solution (5 mg/mL; Sigma-Aldrich) for 4 h. After solubilization with 500 μL of lysis buffer (DMSO), formazan was quantified by spectrophotometry with a microplate reader at 570 nm absorbance (ClarioSTAR, BMG LabTech, Champigny-sur-Marne, France). GI50 values corresponding to the concentration that caused 50% inhibition of cell proliferation were calculated from dose–response curves obtained by nonlinear regression analysis. All results were calculated from data obtained in at least three independent experiments.

A549 lung cancer cells = test: as above; assay type: cell-based, human; settings: for GI50: 72 h, MTT
Procedure: as §6, §7, §8

[2] = tested on: MCF7/FasR breast cancer cells; test: as above; assay type: cell-based, human; settings: for GI50: 72 h, MTT
Procedure: as §6, §7, §8

T24 bladder cancer cells = test: as above; assay type: cell-based, human; settings: for GI50: 72 h, MTT
Procedure: as §6, §7, §8

[3] = tested on: PC-3 prostate cancer cells; test: as above; assay type: cell-based, human; settings: for GI50: 72 h, MTT
Procedure: as §6, §7, §8

[4] = tested on: panel of five cancer cell lines (T24, PC-3, MCF7, A549, HeLa); test: MTT cell viability, 72 h, pooled over the cancer cell panel; assay type: cell-based, human
Procedure: as §6, §7, §8

[5] = GI50 non-irradiated / GI50 irradiated

CSc1ccc(-[n+]2ccn3[c]2[Ir-3]24([c]5ccccc5-c5cccc[n+]52)([c]2ccccc2-c2cccc[n+]24)[c]2n(cc[n+]2-c2ccc(SC)cc2)C3)cc1.F[P-](F)(F)(F)(F)F [Complex 4d]
GI50 (PC-3; MTT): 710 nM
SI (PC-3) (PC-3; NIH3T3 vs PC-3): 12.0
GI50 (T24; MTT): 950 nM
SI (T24) (T24; NIH3T3 vs T24): 8.9
Log P [1]: 0.035
GI50 (HeLa cervix cancer cells; 458 nm irradiation 10 min, read-out: GI50 HeLa Blue): 817 nM
PI HeLa (HeLa cervix cancer cells; [5]): 1.9
SI vs MC3T3, HeLa Blue (HeLa cervix cancer cells; blue light, GI50 MC3T3 / GI50 HeLa): 2.2
SI vs NIH, HeLa Blue (HeLa cervix cancer cells; blue light, GI50 NIH-3T3 / GI50 HeLa): 3.4
GI50 (HeLa cervix cancer cells; dark, read-out: GI50 HeLa Dark): 1540 nM
SI vs MC3T3, HeLa Dark (HeLa cervix cancer cells; dark, GI50 MC3T3 / GI50 HeLa): 1.4
SI vs NIH, HeLa Dark (HeLa cervix cancer cells; dark, GI50 NIH-3T3 / GI50 HeLa): 1.5
GI50 (A549 lung cancer cells; 458 nm irradiation 10 min, read-out: GI50 A549 Blue): 617 nM
PI A549 (A549 lung cancer cells; [5]): 2.4
SI vs MC3T3, A549 Blue (A549 lung cancer cells; blue light, GI50 MC3T3 / GI50 A549): 2.9
SI vs NIH, A549 Blue (A549 lung cancer cells; blue light, GI50 NIH-3T3 / GI50 A549): 4.5
GI50 (A549 lung cancer cells; dark, read-out: GI50 A549 Dark): 1510 nM
SI vs MC3T3, A549 Dark (A549 lung cancer cells; dark, GI50 MC3T3 / GI50 A549): 1.4
SI vs NIH, A549 Dark (A549 lung cancer cells; dark, GI50 NIH-3T3 / GI50 A549): 1.5
GI50 ([2]; 458 nm irradiation 10 min, read-out: GI50 MCF7 Blue): 117 nM
PI MCF7 [2, 5]: 3.1
SI vs MC3T3, MCF7 Blue ([2]; blue light, GI50 MC3T3 / GI50 MCF7): 15.4
SI vs NIH, MCF7 Blue ([2]; blue light, GI50 NIH-3T3 / GI50 MCF7): 23.8
GI50 ([2]; dark, read-out: GI50 MCF7 Dark): 365 nM
SI vs MC3T3, MCF7 Dark ([2]; dark, GI50 MC3T3 / GI50 MCF7): 5.7
SI vs NIH, MCF7 Dark ([2]; dark, GI50 NIH-3T3 / GI50 MCF7): 6.4
GI50 (T24 bladder cancer cells; 458 nm irradiation 10 min, read-out: GI50 T24 Blue): 165 nM
PI T24 (T24 bladder cancer cells; [5]): 3.0
SI vs MC3T3, T24 Blue (T24 bladder cancer cells; blue light, GI50 MC3T3 / GI50 T24): 10.9
SI vs NIH, T24 Blue (T24 bladder cancer cells; blue light, GI50 NIH-3T3 / GI50 T24): 16.8
GI50 (T24 bladder cancer cells; dark, read-out: GI50 T24 Dark): 501 nM
SI vs MC3T3, T24 Dark (T24 bladder cancer cells; dark, GI50 MC3T3 / GI50 T24): 4.2
SI vs NIH, T24 Dark (T24 bladder cancer cells; dark, GI50 NIH-3T3 / GI50 T24): 4.7
GI50 ([3]; 458 nm irradiation 10 min, read-out: GI50 PC-3 Blue): 157 nM
PI PC-3 [3, 5]: 3.2
SI vs MC3T3, PC-3 Blue ([3]; blue light, GI50 MC3T3 / GI50 PC-3): 11.5
SI vs NIH, PC-3 Blue ([3]; blue light, GI50 NIH-3T3 / GI50 PC-3): 17.7
GI50 ([3]; dark, read-out: GI50 PC-3 Dark): 509 nM
SI vs MC3T3, PC-3 Dark ([3]; dark, GI50 MC3T3 / GI50 PC-3): 4.1
SI vs NIH, PC-3 Dark ([3]; dark, GI50 NIH-3T3 / GI50 PC-3): 4.6
Average SI vs MC3T3, Blue light ([4]; GI50 MC3T3 / GI50 of all irradiated cancer cell lines): 8.6
Average SI vs NIH, Blue light ([4]; GI50 NIH-3T3 / GI50 of all irradiated cancer cell lines): 13.2
